Measured values from US11414401B2, “Substituted 2-anilinopyrimidine derivatives as EGFR modulators” (Beta Pharma, Inc., priority 2014, dated 2022).
Like-named read-outs stand apart in the source and are kept apart here.

What was measured:
[1] = tested on: H1975 (double mutant) cells; assay: Cell proliferation assay (Alamar Blue, 72 h), H1975; format: cell-based; details: Homo sapiens, read-out: H1975 IC50
Description: (§1) Cell Culture. […] The cell monolayer was dispersed by 5 minute exposure to 0.25% Trypsin/EDTA solution (Life Technologies) and the solution was neutralized with a fresh growth medium. […] The cells maintained normal morphology and growth characteristics during the period of the study. Cell Proliferation Assay. Dispersed cells were pooled by centrifugation (200×g, 8 min.) and resuspended in a fresh medium to a concentration of 1.00 E+04 cells/ml. 200 μL of the cell suspension was added to each well (2,000 cells/well) of a black-walled 96 well plate and the cells were allowed to attach overnight under normal culture conditions. […] The final DMSO concentration in the well was 0.5% v/v. Vehicle, non-treated, and cell-free wells were also included in the assay. The cells were cultured under normal conditions for 72 hours with daily visual inspection. Cell proliferation was measured using the dye Alamar Blue (resazurin). Resazurin is reduced by cellular enzymes to resorufin, which is fluorescent (544 nm excitation, 612 nm emission). Fluorescence intensity was proportional to cell number. A resazurin stock solution was prepared in a phosphate-buffered saline (PBS) to a stock concentration of 440 μM. The resazurin stock solution (40 μL each) was added to each well at hour 67 of the 72 hour incubation period. The plate was returned to normal culture conditions and fluorescence measurements were collected using a Cytation 3 multimode plate reader (Biotek) at 72 hours. Data Analysis. Fluorescence measurements were normalized against cell-free (background) readings and the total growth over 72 hour time period was determined versus the average of the vehicle control wells. Average and standard deviation values were determined for each condition (n=3).

[2] = tested on: A431 (wild type) cells; assay: Cell proliferation assay (Alamar Blue, 72 h), A431; format: cell-based; details: Homo sapiens, read-out: A431 IC50
Description: as §1

[3] = tested on: subcutaneously-implanted HCC827 human non-small cell lung carcinoma xenographs (delE746-A750 activating mutation); assay: HCC827 mouse xenograft model, tumor growth inhibition; format: in vivo, female nude mice; details: 6.25 mg/kg orally once a day for 14 days (days 13-26)
Text: Antitumor Activity of Example 1 in the HCC827 Mouse Xenograft Model.

[4] = tested on: subcutaneously-implanted H1975 human non-small cell lung carcinoma xenographs (L858R/T790M double mutation); details: po, 25 mg/kg, 336 h
[5] = tested on: subcutaneously-implanted H1975 human non-small cell lung carcinoma xenographs (L858R/T790M double mutation); assay: H1975 mouse xenograft model, tumor growth inhibition; details: for tumor growth delay: P<0.05; for % tumor growth inhibition (% TGI): 100 mg/kg oral
[6] = NCI-H1975, H1975 (double mutant) cells, 72 h proliferation
[7] = A-431, A431 (wild type) cells, 72 h proliferation
[8] = 6.25 mg/kg orally once a day for 14 days (days 6-19)
[9] = 12.5 mg/kg orally once a day for 14 days (days 6-19)
[10] = 25 mg/kg orally once a day for 14 days (days 6-19)
[11] = all doses (6.25, 12.5 and 25 mg/kg) orally once a day for 14 days
[12] = 100 mg/kg orally once a day for 14 days (days 7-20)

Compound: C=CC(=O)Nc1cc(Nc2nccc(-c3c(C)n(C)c4ccccc34)n2)c(OC)cc1OCCN(C)C [Example 8, N-(5-((4-(1,2-Dimethyl-1H-indol-3-yl)pyrimidin-2-yl)amino)-2-(2-(dimethylamino)ethoxy)-4-methoxyphenyl)acrylamide]
- IC50 [1, 6]: < 100 nM
- IC50 [2, 7]: 100 to 1000 nM

Compound: C=CC(=O)Nc1cc(Nc2nccc(-c3cn(C)c4ccccc34)n2)c(OC)cc1OCCN(C)C [Example 1, N-(2-(2-(Dimethylamino)ethoxy)-4-methoxy-5-((4-(1-methyl-1H-indol-3-yl)pyrimidin-2-yl)amino)phenyl)acrylamide]
- incidence of complete tumor regression at the completion of dosing [3]: 100%
- median time to evaluation size [3]: 61.5 days
- tolerability [3]: well tolerated
- treatment-related mortality [3]: no treatment-related mortality
- tumor growth delay ([3]; P<0.05): 33.2 days
- tumor free survivors [4]: 10%
- IC50 [1, 6]: < 100 nM
- median time to evaluation size [5, 8]: 28.9 days
- tumor growth delay [5, 8]: 14 days
- median time to evaluation size [5, 9]: 31.6 days
- tumor growth delay [5, 9]: 16.7 days
- incidence of complete regressions [5, 10]: 100%
- median time to evaluation size [5, 10]: 34.3 days
- tumor growth delay [5, 10]: 19.3 days
- tolerability [5, 11]: well tolerated
- treatment-related mortality [5, 11]: no treatment-related mortality
- IC50 [2, 7]: > 1000 nM

Compound: C=CC(=O)Nc1cc(Nc2nccc(-c3cn(C)c4ccccc34)n2)c(OC)cc1OC [Example 3, N-(2,4-Dimethoxy-5-((4-(1-methyl-1H-indol-yl)pyrimidin-2-yl)amino)-phenyl)acrylamide]
- IC50 [1, 6]: 100 to 1000 nM
- IC50 [2, 7]: > 1000 nM

Compound: C=CC(=O)Nc1cc(Nc2nccc(-c3cn(C)c4ccccc34)n2)c(OC)cc1CCCN(C)C [Example 4, N-(2-(3-(Dimethylamino)propyl)-4-methoxy-5-((4-(1-methyl-1H-indol-3-yl)pyrimidin-2-yl)amino)phenyl)acrylamide]
- IC50 [1, 6]: < 100 nM
- IC50 [2, 7]: > 1000 nM

Compound: C=CC(=O)Nc1cc(Nc2nccc(-c3cnn4ccccc34)n2)c(OC)cc1OCCN(C)C [Example 9, N-(2-(2-(Dimethylamino)ethoxy)-4-methoxy-5-((4-(pyrazolo[1,5-a]pyridin-3-yl)pyrimidin-2-yl)amino)phenyl)acrylamide]
- IC50 [1, 6]: < 100 nM
- IC50 [2, 7]: > 1000 nM

Compound: C=CC(=O)Nc1cc(Nc2nccc(-c3cn(CCF)c4ccccc34)n2)c(OC)cc1OCCN(C)C [Example 11, N-(2-(2-(Dimethylamino)ethoxy)-5-((4-(1-(2-fluoroethyl)-1H-indolyl-3-yl)pyrimidin-2-yl)amino)-4-methoxyphenyl)acrylamide]
- IC50 ([1]; NCI-H1975, 72 h): < 100 nM
- IC50 ([2]; A-431, 72 h): 100 to 1000 nM

Compound: C=CC(=O)Nc1cc(Nc2nccc(-c3nn(C)c4ccccc34)n2)c(OC)cc1OCCN(C)C [Example 10, N-(2-(2-(Dimethylamino)ethoxy)-4-methoxy-5-((4-(1-methyl-1H-indazol-3-yl)pyrimidin-2-yl)amino)phenyl)acrylamide]
- IC50 [1, 6]: < 100 nM
- IC50 [2, 7]: 100 to 1000 nM

Compound: C=CC(=O)Nc1cc(Nc2nccc(-c3c4ccccc4nn3C)n2)c(OC)cc1OCCN(C)C [Example 5, N-(2-(2-(Dimethylamino)ethoxy)-4-methoxy-5-((4-(2-methyl-2H-indazol-3-yl)pyrimidin-2-yl)amino)phenyl)acrylamide]
- IC50 [1, 6]: 100 to 1000 nM
- IC50 [2, 7]: 100 to 1000 nM

Compound: C=CC(=O)Nc1cc(Nc2nccc(-c3cn(C)c4ccccc34)n2)c(OC)cc1SCCN(C)C [Example 2, N-(2-((2-(Dimethylamino)ethyl)thio)-4-methoxy-5-((4-(1-methyl-1H-indol-3-yl)pyrimidin-2-yl)amino)phenyl)acrylamide]
- IC50 [1, 6]: < 100 nM
- % tumor growth inhibition (% TGI) ([5]; from median tumor burdens on day 10): 110.5%
- % tumor growth inhibition (% TGI) ([5]; from median tumor burdens on day 14): 116.6%
- % tumor growth inhibition (% TGI) ([5]; from median tumor burdens on day 17): 116.6%
- incidence of complete tumor regression [5, 12]: 100%
- mice remaining tumor free (TFS) at the completion of the study [5, 12]: 12.5%
- time to evaluation size (750 mm^3) [5, 12]: 39.6 days
- tolerability [5, 12]: well tolerated
- tumor growth delay (T-C) [5, 12]: 22.2 days
- IC50 [2, 7]: > 1000 nM
